From US5356923A, “1-hydroxy-4(3-cyclopentyloxy-4-methoxyphenyl)-2-pyrrolidone and anti-hypertensive use thereof” (Orion-yhtyma Oy, priority 1990, dated 1994)

What was measured:
PDE IV [1] = test: Inhibition of PDE IV; type: biochemical; conditions: PDE isoenzymes isolated using DEAE-Sepharose chromatography
Method: (§1) PDE isoenzymes were isolated using DEAE-Sepharose chromatography as described by Reeves et al. in Biochem. J., 241 (1987), pp. 535-541. PDE IV and PDE III activities were determined by the method of Alajoutsijarvi and Nissinen as described in Anal. Biochem. 165 (1987), pp. 128-132.

PDE III [2] = biological target: T1, PDE III (Homo sapiens, UniProt Q14432); test: Inhibition of PDE III; type: biochemical; conditions: PDE isoenzymes isolated using DEAE-Sepharose chromatography
T1 construct: PDE isoenzymes were isolated using DEAE-Sepharose chromatography; from tissue; the cited Reeves et al. 1987 used human and guinea-pig cardiac ventricle (own knowledge)
Method: as §1

[3] = system: LTB4 synthesis in human basophilic leucocytes; test: Inhibition of arachidonic acid induced LTB4 synthesis; type: cell-based; conditions: Leucocyte, HPLC, UV 271 nm
Method: (§2) The inhibition of arachidonic acid induced LTB4 and LTC4 synthesis in human basophilic leucocytes was determined with liquid chromatography and UV detection. LTB4 and LTC4 were separated first by HPLC with a Spherisorb ODS colon (5 μm, 150×4.6 mm) and Spectroflow 400 Kratos Analytical pump. The flow rate was 1 ml/min and the solvents were methanol/water/acetic acid […], pH 5.0 for LTB4 and methanol/water/acetic acid/phosphoric acid (65/35/0.07/0.03), pH 5.5 for LTC4. The peaks were analyzed further with Spektroflow 773 Kratos Analytical UV absorbance detector and leukotrienes were detected at the wavelength of 271 nm and 280 nm for LTB4 and LTC4, respectively.

[4] = system: LTC4 synthesis in human basophilic leucocytes; test: Inhibition of arachidonic acid induced LTC4 synthesis; type: cell-based; conditions: Leucocyte, HPLC, UV 280 nm
Method: as §2

PDE IV [5] = conditions: prior art compound, no test shown; cited from earlier work
PDE III [6] = biological target: T1, PDE III; conditions: prior art compound, no test shown; cited from earlier work

T1 sequence (Q14432 whole entry): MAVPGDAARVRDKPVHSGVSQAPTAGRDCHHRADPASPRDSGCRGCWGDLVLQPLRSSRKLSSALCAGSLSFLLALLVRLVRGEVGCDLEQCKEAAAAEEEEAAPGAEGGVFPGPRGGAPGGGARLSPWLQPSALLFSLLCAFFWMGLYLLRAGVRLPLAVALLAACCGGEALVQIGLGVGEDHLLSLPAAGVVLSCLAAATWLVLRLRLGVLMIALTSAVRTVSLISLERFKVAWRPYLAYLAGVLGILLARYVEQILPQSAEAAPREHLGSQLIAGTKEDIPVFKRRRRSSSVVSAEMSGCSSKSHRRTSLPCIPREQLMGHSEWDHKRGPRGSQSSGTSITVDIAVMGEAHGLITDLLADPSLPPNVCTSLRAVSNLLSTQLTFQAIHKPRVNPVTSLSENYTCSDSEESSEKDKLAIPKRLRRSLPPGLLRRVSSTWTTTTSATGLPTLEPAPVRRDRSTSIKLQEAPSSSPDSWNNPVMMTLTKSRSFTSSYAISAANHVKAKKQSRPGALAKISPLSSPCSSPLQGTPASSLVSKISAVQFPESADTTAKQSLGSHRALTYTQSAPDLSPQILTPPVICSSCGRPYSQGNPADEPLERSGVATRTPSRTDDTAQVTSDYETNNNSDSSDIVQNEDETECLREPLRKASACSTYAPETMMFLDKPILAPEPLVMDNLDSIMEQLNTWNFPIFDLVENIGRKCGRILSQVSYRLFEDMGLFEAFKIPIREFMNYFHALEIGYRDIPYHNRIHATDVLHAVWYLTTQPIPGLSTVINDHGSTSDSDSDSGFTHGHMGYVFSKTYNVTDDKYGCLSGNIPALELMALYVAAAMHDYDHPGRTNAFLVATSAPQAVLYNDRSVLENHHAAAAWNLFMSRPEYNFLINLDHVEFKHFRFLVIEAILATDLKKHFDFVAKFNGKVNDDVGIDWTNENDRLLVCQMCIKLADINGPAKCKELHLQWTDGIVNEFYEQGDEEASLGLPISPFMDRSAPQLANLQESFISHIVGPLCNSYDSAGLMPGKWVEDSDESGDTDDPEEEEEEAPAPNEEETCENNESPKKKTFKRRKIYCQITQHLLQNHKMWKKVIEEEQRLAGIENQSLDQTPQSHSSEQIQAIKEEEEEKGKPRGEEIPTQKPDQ

Row | IC50 (PDE IV [1]) [nM] | IC50 (PDE III [2]) [µM] | IC50 [3] [µM] | IC50 [4] [µM] | Structure (SMILES) | PDE IV selectivity (in words) (PDE IV [5]) | inhibition of PDE III (in words) (PDE III [6])
1 | 900 | 205 | 3.7 | 3.2 | COc1ccc(C2CC(=O)N(O)C2)cc1OC1CCCC1 (stereo not drawn) [Example 1, 1-Hydroxy-4-(3-cyclopentyloxy-4-methoxyphenyl)-2-pyrrolidone] | – | –
2 | – | – | – | – | COc1ccc(C2CNC(=O)C2)cc1OC1CCCC1 (stereo not drawn) [rolipram, 4-[3-(cyclopentyloxy)-4-methoxyphenyl]-2-pyrrolidone] | not selective PDE IV inhibitor | also inhibits PDE III
